According to US12281122B1, “PI3K inhibitors” (Cogent Biosciences, Inc., priority 2023, dated 2025):

What was measured:
[1] = test system: T47D (PI3Kα-H1047R) cell line; assay: HTRF phospho-AKT(S473) cell assay in T47D cells; type: cell-based, human; settings: Homo sapiens; T47D (PI3Kα-H1047R) cells, HTRF phospho-AKT(S473), 2 hours compound incubation
Method in brief: (§1)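 HTRF read-out of phospho-AKT(S473) in lysates gave IC50 values after 2 h compound exposure at 37° C. Dose series was 12 points at 1:3, topping at 5 μM for T47D and 10 μM for SKBR3. Only SKBR3 received 70 ng/ml PDGF-BB during the last 15 minutes.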

[2] = test system: SKBR3 (PI3Kα-Wild Type) cell line; assay: HTRF phospho-AKT(S473) cell assay in SKBR3 cells; type: cell-based, human; settings: Homo sapiens, SK-BR-3; SKBR3 (PI3Kα-Wild Type) cells, HTRF phospho-AKT(S473), 2 hours compound incubation, PDGF-BB stimulated
Method in brief: as §1

Compound: Cc1cc([C@@H](C)Nc2ccc(Cl)nc2C(=O)NS(C)(=O)=O)c2nc(N3CCN(c4ccc(N)nc4)CC3)n(C)c(=O)c2c1 [Compound 174, (R)-3-((1-(2-(4-(6-aminopyridin-3-yl)piperazin-1-yl)-3,6-dimethyl-4-oxo-3,4-dihydroquinazolin-8-yl)ethyl)amino)-6-chloro-N-(methylsulfonyl) picolinamide]
- IC50 [1]: < 250 nM
- IC50 [2]: 1 to 5 µM

Compound: CC(=O)N1CCN(c2ccc(-c3nc4c([C@@H](C)Nc5ccc(Cl)nc5C(=O)NS(C)(=O)=O)cc(C)cc4c(=O)n3C)cn2)CC1 [Compound 175, (R)-3-((1-(2-(6-(4-acetylpiperazin-1-yl)pyridin-3-yl)-3,6-dimethyl-4-oxo-3,4-dihydroquinazolin-8-yl)ethyl)amino)-6-chloro-N-(methylsulfonyl) picolinamide]
- IC50 [1]: < 250 nM
- IC50 [2]: 1 to 5 µM

Compound: Cc1cc([C@@H](C)Nc2ccc(Cl)nc2C(=O)NS(C)(=O)=O)c2nc(N3Cc4cn(C(F)F)nc4C3)n(C)c(=O)c2c1 [Compound 176, (R)-6-chloro-3-((1-(2-(2-(difluoromethyl)-2,6-dihydropyrrolo[3,4-c]pyrazol-5(4H)-yl)-3,6-dimethyl-4-oxo-3,4-dihydroquinazolin-8-yl)ethyl)amino)-N-(methylsulfonyl) picolinamide]
- IC50 [1]: < 250 nM
- IC50 [2]: 1 to 5 µM

Compound: Cc1cc([C@@H](C)Nc2ccc(Cl)nc2C(=O)NS(C)(=O)=O)c2nc(-c3ccc(N4CCC(O)CC4)nc3)n(C)c(=O)c2c1 [Compound 177, (R)-6-chloro-3-((1-(2-(6-(4-hydroxypiperidin-1-yl)pyridin-3-yl)-3,6-dimethyl-4-oxo-3,4-dihydroquinazolin-8-yl)ethyl)amino)-N-(methylsulfonyl) picolinamide]
- IC50 [1]: < 250 nM
- IC50 [2]: 1 to 5 µM

Compound: Cc1cc([C@@H](C)Nc2ccc(Cl)nc2C(=O)NS(C)(=O)=O)c2nc(N3CCC(c4ccn(C)n4)CC3)n(C)c(=O)c2c1 [Compound 178, (R)-6-chloro-3-((1-(3,6-dimethyl-2-(4-(1-methyl-1H-pyrazol-3-yl)piperidin-1-yl)-4-oxo-3,4-dihydroquinazolin-8-yl)ethyl)amino)-N-(methylsulfonyl) picolinamide]
- IC50 [1]: < 250 nM
- IC50 [2]: 1 to 5 µM

Compound: Cc1cc([C@@H](C)Nc2ccc(Cl)nc2C(=O)NS(C)(=O)=O)c2nc(N3Cc4cnn(C5(C(F)(F)F)CC5)c4C3)n(C)c(=O)c2c1 [Compound 179, (R)-6-chloro-3-((1-(3,6-dimethyl-4-oxo-2-(1-(1-(trifluoromethyl)cyclopropyl)-4,6-dihydropyrrolo[3,4-c]pyrazol-5(1H)-yl)-3,4-dihydroquinazolin-8-yl)ethyl)amino)-N-(methylsulfonyl) picolinamide]
- IC50 [1]: < 250 nM
- IC50 [2]: 1 to 5 µM

Compound: Cc1cc([C@@H](C)Nc2ccc(Cl)nc2C(=O)NS(C)(=O)=O)c2nc(C3CCN(c4ccc(C#N)nc4)CC3)n(C)c(=O)c2c1 [Compound 180, (R)-6-chloro-3-((1-(2-(1-(6-cyanopyridin-3-yl)piperidin-4-yl)-3,6-dimethyl-4-oxo-3,4-dihydroquinazolin-8-yl)ethyl)amino)-N-(methylsulfonyl) picolinamide]
- IC50 [1]: < 250 nM
- IC50 [2]: 1 to 5 µM

Compound: Cc1cc([C@@H](C)Nc2ccc(Cl)nc2C(=O)NS(C)(=O)=O)c2nc(N3CCC(c4cnn(C)c4)CC3)n(C)c(=O)c2c1 [Compound 181, (R)-6-chloro-3-((1-(3,6-dimethyl-2-(4-(1-methyl-1H-pyrazol-4-yl)piperidin-1-yl)-4-oxo-3,4-dihydroquinazolin-8-yl)ethyl)amino)-N-(methylsulfonyl) picolinamide]
- IC50 [1]: < 250 nM
- IC50 [2]: 1 to 5 µM

Compound: Cc1cc([C@@H](C)Nc2ccc(Cl)nc2C(=O)NS(C)(=O)=O)c2nc(N3CCN(c4ccccn4)CC3)n(C)c(=O)c2c1 [Compound 182, (R)-6-chloro-3-((1-(3,6-dimethyl-4-oxo-2-(4-(pyridin-2-yl)piperazin-1-yl)-3,4-dihydroquinazolin-8-yl)ethyl)amino)-N-(methylsulfonyl) picolinamide]
- IC50 [1]: < 250 nM
- IC50 [2]: 1 to 5 µM

Compound: Cc1cc([C@@H](C)Nc2ccc(Cl)nc2C(=O)NS(C)(=O)=O)c2nc(N3CCN(c4ccccc4)CC3)n(C)c(=O)c2c1 [Compound 183, (R)-6-chloro-3-((1-(3,6-dimethyl-4-oxo-2-(4-phenylpiperazin-1-yl)-3,4-dihydroquinazolin-8-yl)ethyl)amino)-N-(methylsulfonyl) picolinamide]
- IC50 [1]: < 250 nM
- IC50 [2]: 1 to 5 µM

Compound: Cc1cc([C@@H](C)Nc2ccc(Cl)nc2C(=O)NS(C)(=O)=O)c2nc(N3CCN(c4ncc(C#N)cc4C)CC3)n(C)c(=O)c2c1 [Compound 184, (R)-6-chloro-3-((1-(2-(4-(5-cyano-3-methylpyridin-2-yl)piperazin-1-yl)-3,6-dimethyl-4-oxo-3,4-dihydroquinazolin-8-yl)ethyl)amino)-N-(methylsulfonyl) picolinamide]
- IC50 [1]: < 250 nM
- IC50 [2]: 1 to 5 µM

Compound: Cc1cc([C@@H](C)Nc2ccc(Cl)nc2C(=O)NS(C)(=O)=O)c2nc(N3Cc4cn(C5(C(F)(F)F)CC5)nc4C3)n(C)c(=O)c2c1 [Compound 185, (R)-6-chloro-3-((1-(3,6-dimethyl-4-oxo-2-(2-(1-(trifluoromethyl)cyclopropyl)-2,6-dihydropyrrolo[3,4-c]pyrazol-5(4H)-yl)-3,4-dihydroquinazolin-8-yl)ethyl)amino)-N-(methylsulfonyl) picolinamide]
- IC50 [1]: < 250 nM
- IC50 [2]: 1 to 5 µM

Compound: Cc1cc([C@@H](C)Nc2ccc(Cl)nc2C(=O)NS(C)(=O)=O)c2nc(C3CCN(c4ccc(C#N)cn4)CC3)n(C)c(=O)c2c1 [Compound 186, (R)-6-chloro-3-((1-(2-(1-(5-cyanopyridin-2-yl)piperidin-4-yl)-3,6-dimethyl-4-oxo-3,4-dihydroquinazolin-8-yl)ethyl)amino)-N-(methylsulfonyl) picolinamide]
- IC50 [1]: < 250 nM
- IC50 [2]: 1 to 5 µM

Compound: Cc1cc([C@@H](C)Nc2ccc(Cl)nc2C(=O)NS(C)(=O)=O)c2nc(N3CCN(c4ccn(C)n4)CC3)n(C)c(=O)c2c1 [Compound 187, (R)-6-chloro-3-((1-(3,6-dimethyl-2-(4-(1-methyl-1H-pyrazol-3-yl)piperazin-1-yl)-4-oxo-3,4-dihydroquinazolin-8-yl)ethyl)amino)-N-(methylsulfonyl) picolinamide]
- IC50 [1]: < 250 nM
- IC50 [2]: 1 to 5 µM

Compound: Cc1cc([C@@H](C)Nc2ccc(Cl)nc2C(=O)NS(C)(=O)=O)c2nc(N3CCN(c4cnn(C)c4)CC3)n(C)c(=O)c2c1 [Compound 188, (R)-6-chloro-3-((1-(3,6-dimethyl-2-(4-(1-methyl-1H-pyrazol-4-yl)piperazin-1-yl)-4-oxo-3,4-dihydroquinazolin-8-yl)ethyl)amino)-N-(methylsulfonyl) picolinamide]
- IC50 [1]: < 250 nM
- IC50 [2]: 1 to 5 µM

Compound: Cc1cc([C@@H](C)Nc2ccc(Cl)nc2C(=O)NS(C)(=O)=O)c2nc(N3Cc4cn(-c5ccccc5C)nc4C3)n(C)c(=O)c2c1 [Compound 189, (R)-6-chloro-3-((1-(3,6-dimethyl-4-oxo-2-(2-(o-tolyl)-2,6-dihydropyrrolo[3,4-c]pyrazol-5(4H)-yl)-3,4-dihydroquinazolin-8-yl)ethyl)amino)-N-(methylsulfonyl) picolinamide]
- IC50 [1]: 250 to 500 nM
- IC50 [2]: ≥ 5 µM
